Like-named read-outs stand apart in the source and are kept apart here.
Columns and labels:
ALI mice induced by LPS [1] = assay: Mouse acute lung injury model: lung index, W/D, BALF leukocytes and protein (Experimental Example 5); type: in vivo; details: three-component 398 mg/kg intragastric, dexamethasone 5 mg/kg i.p.
Method: (§1) Establishment of mouse acute lung injury model: Mice were anesthetized with isoflurane, and LPS (1 mg/kg) was instilled into one side of the nasal cavity. After instillation, the mice were stood upright quickly, and returned to the original feeding cage after waking up to complete modeling.
(§2) All drugs were administered 0.5 h after establishing the mouse ALI model with LPS.
24 h after model establishment, mice were anesthetized with pentobarbital sodium and sacrificed by abdominal aorta bloodletting. Lung tissues were dissected and weighed, and the lung coefficient (lung tissue weight/mouse body weight) was calculated; the right upper lobe of the mouse lung was fixed in formalin, and pathological sections were made and stained with HE to observe pathological changes; the middle and lower lobes of the right lung of the mouse were weighed (wet weight), placed in a 60° C. oven to dry to constant weight, and weighed (dry weight), and the wet-to-dry weight ratio (wet weight/dry weight, W/D) was calculated. The right bronchus of the mouse was ligated, the left lobe of the lung was taken, and bronchoalveolar lavage fluid (BALF) was recovered after lavage with 0.8 mL PBS for three times. The total number of leukocytes and total protein concentration were determined using an automatic cell counter.

ALI mice induced by LPS [2] = assay: Mouse acute lung injury model: BALF inflammatory factors and lung pathology (Experimental Example 6); type: in vivo; details: three-component 398 mg/kg intragastric, dexamethasone 5 mg/kg i.p.
Method: as §1, §2
The levels of inflammatory factors IL-1B, IL-6 and TNF-α in BALF were determined in strict accordance with the instructions of the inflammatory factor detection kit.
The right upper lobe of the mouse lung was fixed with tissue fixative for 72 hours, and HE-stained sections were prepared by paraffin embedding, sectioning, dehydration and staining. Lung tissue lesions were observed under a microscope.

RAW264.7 cells = details: reported by NICM Health Research Institute; cited from earlier work
[3] = system: LPS-induced RAW264.7 cells; assay: Inhibition of NO release in LPS-induced RAW264.7 cells, with Chou-Talalay synergy analysis (Experimental Example 1); type: cell-based, mouse; details: for NO Production Rate: LPS 50 ng/mL 24 h, LPS without drug = 100%; for IC50: read-out: IC50 (concentration at which NO production is 50%), LPS-induced RAW264.7 cells, NO release
Method: RAW264.7 cells were seeded in a 96-well cell culture plate at 1×10^6/mL and cultured for 24 h. […] The cells were pretreated with the serially diluted drug solutions for 2 h, and then treated with LPS (50 ng/mL) for 24 h. The cell supernatant was aspirated, the NO release level in the supernatant was determined, and the IC50 values of the four groups of drugs inhibiting NO release were calculated. The dose-effect relationships of the three single components and the three-component composition were imported into CalcuSyn software 2.0 (Biosoft, USA), and the inhibition rate-combination index plot (Fa-CI) was generated using the Chou-Talalay mathematical model. The Fa-CI plot can reflect the relationship between the CI value and the effective level of a certain biological index (i.e., the inhibitory effect on NO). The intensity and nature of the interaction between drugs can be quantitatively judged by the value of CI: CI>1 indicates antagonism, CI=1 indicates additive effect, and CI<1 indicates synergism.

SMILES	inhibiting LPS-induced NO release from RAW264.7 cells (RAW264.7 cells)	NO Production Rate ([3]; 1.63 μM)	NO Production Rate ([3]; 3.125 μM)	NO Production Rate ([3]; 6.25 μM)	NO Production Rate ([3]; 12.5 μM)	NO Production Rate ([3]; 25 μM)	NO Production Rate ([3]; 50 μM)	NO Production Rate ([3]; 100 μM)	NO Production Rate ([3]; 0.86 μM)	IC50 ([3]; Mus musculus)	further results
C[C@@H]1C[C@H]2[C@@H]3CCC4=CC(=O)C=C[C@]4(C)[C@@]3(F)[C@@H](O)C[C@]2(C)[C@@]1(O)C(=O)CO [Dexamethasone, dexamethasone]	–	–	–	–	–	–	–	–	–	–	BALF Leukocytes (ALI mice induced by LPS [1]; 24 h after LPS): 18.760 ± 7.468 ×10^5 cells/mL; BALF Protein Concentration (ALI mice induced by LPS [1]; 24 h after LPS): 0.814 ± 0.183 mg/mL; Lung Index (BW) (ALI mice induced by LPS [1]; lung tissue weight/body weight, 24 h after LPS 1 mg/kg intranasal, 0.5 h after LPS): 0.816 ± 0.089; Wet-to-Dry Weight Ratio (W/D) (ALI mice induced by LPS [1]; right lung lobes, 24 h after LPS): 4.701 ± 0.221; IL-1β in BALF (ALI mice induced by LPS [2]; ALI mice, 24 h after LPS): 186.475 ± 76.810 pg/mL; IL-6 in BALF (ALI mice induced by LPS [2]; ALI mice, 24 h after LPS): 819.19 ± 506.63 pg/mL; TNF-α in BALF (ALI mice induced by LPS [2]; ALI mice, 24 h after LPS): 345.080 ± 239.594 pg/mL; Pathological Score (ALI mice induced by LPS [2]; lung tissue, HE staining): 6.70 ± 2.50
O=c1cc(-c2ccc(O)c(O)c2)oc2cc(O)cc(O)c12 [luteolin]	a certain effect	–	–	–	–	–	–	–	–	–	–
CCCCC/C=C/C(=O)CCc1ccc(O)c(OC)c1 [6-Shogaol, 6-shogaol]	a certain effect	60.42 ± 6.14%	56.75 ± 6.97%	41.41 ± 2.75%	11.42 ± 2.69%	8.67 ± 0.84%	6.11 ± 2.41%	5.89 ± 3.38%	–	–	IC50 [3]: 3.23 ± 0.42 µM
CC1(C)[C@@H](O[C@H]2O[C@H](C(=O)O)[C@@H](O)[C@H](O)[C@H]2O[C@@H]2O[C@H](C(=O)O)[C@@H](O)[C@H](O)[C@H]2O)CC[C@]2(C)[C@H]3C(=O)C=C4[C@@H]5C[C@@](C)(C(=O)O)CC[C@]5(C)CC[C@@]4(C)[C@]3(C)CC[C@@H]12 [Glycyrrhizic Acid, glycyrrhizic acid]	a certain effect	88.06 ± 5.38%	86.28 ± 2.29%	81.79 ± 5.81%	80.67 ± 4.74%	71.04 ± 3.50%	55.35 ± 3.98%	43.54 ± 6.10%	105.02 ± 8.02%	78.8 ± 11.9 µM	–
O=c1cc(-c2ccccc2)oc2cc(O)c(O)c(O)c12 [Baicalein, baicalein]	a certain effect	–	–	–	60.52 ± 5.14%	40.47 ± 6.87%	7.77 ± 3.47%	2.44 ± 2.33%	90.14 ± 7.64%	11.3 ± 1.32 µM	–
C=C1CC[C@@H]2[C@](C)(CO)[C@H](O)CC[C@@]2(C)[C@@H]1C/C=C1/C(=O)OC[C@H]1O [andrographolide]	a certain effect	–	–	–	–	–	–	–	–	–	–

From patent US20260272967A1, “TRADITIONAL CHINESE MEDICINE COMPOSITION FOR TREATING LUNG INFLAMMATION RELATED DISEASES AND ITS USES” (XIYUAN HOSPITAL, CHINA ACADEMY OF CHINESE MEDICAL SCIENCES, priority 2023, published 2026)
